Laboratory results reported in US20260076974A1, “COMPOSITIONS FOR PREVENTING AND TREATING INFECTION COMPRISING AN ARTIFICIAL SWEETENER” (Brunel University London, priority 2022, published 2026).
Read-outs that look alike come from different tables or passages of the source.

Tests used:
P. aeruginosa = test: Antibiotic susceptibility in the presence of sub-minimum inhibitory concentration of ace-K; type: cell-based, Pseudomonas aeruginosa; conditions: grown in the presence of ace-K for 19 hours
A. baumannii AB5075 [1] = test: Growth inhibition assay in LB medium (OD600); type: cell-based, Acinetobacter baumannii
E. coli [2] = test system: E. coli
Description: (§4) N=3 biological triplicate, each with technical triplicates).

E. coli [3] = test system: E. coli; remark: listed apart in the source
P. aeruginosa PA14 [4] = test: Growth inhibition assay in nutrient medium (OD600); type: cell-based, Pseudomonas aeruginosa
[5] = test system: A. baumannii gene expression
Description: Cells were spun down and washed in RNAlater to preserve mRNA. RNA was isolated using a Qiagen RNAeasy Kit with column DNAase digestion. RNA integrity was determined using a Bioanalyzer. Samples were further processed for RNA sequencing on an Illumina MiSeq with 12 million reads per sample. Quality control and adapter trimming was performed with bcl2fastq.

A. baumannii = test: Crystal violet biofilm formation assay / minimum biofilm inhibition concentration; type: cell-based, Acinetobacter baumannii
Description: (§1) Biofilm formation is linked to 80% of hospital-associated infections and is a major factor in the routine failure of antibiotic therapy.
(§2) All samples were exposed to the artificial sweeteners in LB medium for 19 hours before crystal violet biofilm assay was performed. […] The data present the mean of three biological replicates±SD. *p≤0.05, *p≤0.001 versus the bacterial growth in control samples.
(§3) All samples were exposed to artificial sweeteners for 19 hours before crystal violet biofilm assay was performed.

A. baumannii AB5075 [6] = test: Carbapenem E strip on agar with sweetener
Description: The data presented is a representative image of three biological replicates±SD.

P. aeruginosa PA14 [7] = test: Crystal violet biofilm formation assay / minimum biofilm inhibition concentration; type: cell-based, Pseudomonas aeruginosa; conditions: 3% (w/v) sucralose, […] (w/v) ace-K, LB medium, 19 hours
Description: as §1, §2, §3

A. baumannii AB5075 [8] = test system: A. baumannii AB5075; parameters: species or system Acinetobacter baumannii
Description: In this model, porcine skin was either burnt or lacerated and the wound infected with A. baumannii AB5075 and left for 3.5 hours to allow a biofilm to form. The dressing was applied for 1 hour and viable cells were collected after treatment. […] Samples were tested in biological triplicate with technical quadruplets.
(8% (w/w)), potassium tetraborate (3% (w/w)), and PVA (3% ((w/w)) were added into a beaker and mixed with deionized water. The mixture was placed in a water bath and heated at 80° C. for three hours with watch glass while being swirled with a stirring rod every 1 hour. Once hydrogels had been obtained, they were placed in a petri dish with custom-made moulds.

[9] = […] sweetener, 19 hours, LB medium
[10] = […] sweetener, 19 hours, 37° C.

Description for Klebsiella pneumoniae: as §4

Compound: gentamicin
- susceptibility to antibiotic in the presence of ace-K (P. aeruginosa): increased susceptibility

Compound: OC[C@@H](O)[C@@H](O)CO [erythritol, Erythritol]
- bacterial growth in the presence of sweetener (A. baumannii AB5075 [1]; [9]): inhibit the growth

Compound: O=S(=O)([O-])NC1CCCCC1.[Na+] [cyclamate, sodium cyclamate]
- concentration showing significant / effective growth inhibition (E. coli [2]): ≥ 0.1%
- concentration inhibiting biofilm formation (E. coli [3]): ≥ 3%
- bacterial growth in the presence of sweetener (P. aeruginosa PA14 [4]): inhibit the growth
- concentration showing significant / effective growth inhibition (P. aeruginosa PA14 [4]): ≥ 2%
- concentration showing significant / effective growth inhibition (Klebsiella pneumoniae): ≥ 2%
- number of genes significantly differentially expressed [5]: 288 genes
- concentration with significant impact on / inhibition of biofilm formation (A. baumannii): ≥ 4%
- bacterial growth in the presence of sweetener (A. baumannii AB5075 [1]): inhibit the growth
- concentration showing significant / effective growth inhibition (A. baumannii AB5075 [1]): ≥ 2%
- concentration inhibiting biofilm formation (K. pneumonia): ≥ 3%

Compound: C[C@@H](O)[C@H]1C(=O)N2C(C(=O)O)=C(S[C@@H]3CN[C@H](C(=O)N(C)C)C3)[C@H](C)[C@H]12 [meropenem]
- point to which growth was inhibited on the strip (A. baumannii AB5075 [6]; Control): ≥32 mg/L
- point to which growth was inhibited on the strip (A. baumannii AB5075 [6]; SAC 1%): 29.33 ± 4.61 ns mg/L
- point to which growth was inhibited on the strip (A. baumannii AB5075 [6]; SAC […]): 0.54 ± 0.19 mg/L

Compound: C[C@@H](O)[C@H]1C(=O)N2C(C(=O)O)=C(SCCN=CN)C[C@H]12 [imipenem]
- point to which growth was inhibited on the strip (A. baumannii AB5075 [6]; Control): 21.33 ± 4.61 mg/L
- point to which growth was inhibited on the strip (A. baumannii AB5075 [6]; SAC 1%): 18.67 ± 4.61 ns mg/L
- point to which growth was inhibited on the strip (A. baumannii AB5075 [6]; SAC […]): 1 ± 0.43 mg/L

Compound: OC[C@@H](O)[C@@H](O[C@H]1O[C@H](CO)[C@@H](O)[C@H](O)[C@H]1O)[C@H](O)[C@@H](O)CO [maltitol, Maltitol]
- bacterial growth in the presence of sweetener (P. aeruginosa PA14 [4]; [10]): inhibit the growth
- bacterial growth in the presence of sweetener (A. baumannii AB5075 [1]; [9]): inhibit the growth

Compound: OC[C@@H](O)[C@H](O)[C@@H](O)CO [xylitol, Xylitol]
- bacterial growth in the presence of sweetener (P. aeruginosa PA14 [4]; [10]): inhibit the growth
- bacterial growth in the presence of sweetener (A. baumannii AB5075 [1]; [9]): inhibit the growth

Compound: OC[C@@H](O)[C@@H](O)[C@H](O)[C@@H](O)CO [sorbitol]
- bacterial growth in the presence of sweetener (P. aeruginosa PA14 [4]; [10]): inhibit the growth

Compound: OC[C@@H](O)[C@@H](O)[C@H](O)[C@H](O)CO [mannitol, Mannitol]
- bacterial growth in the presence of sweetener (A. baumannii AB5075 [1]; [9]): inhibit the growth

Compound: OCC1O[C@@H](O[C@@H]([C@H](O)[C@@H](O)CO)[C@H](O)CO)C(O)C(O)[C@H]1O (stereo partly drawn) [lactitol monohydrate, Lactitol]
- bacterial growth in the presence of sweetener (A. baumannii AB5075 [1]; [9]): inhibit the growth

Compound: OC[C@H]1O[C@H](O[C@]2(CCl)O[C@H](CCl)[C@@H](O)[C@@H]2O)[C@H](O)[C@@H](O)[C@H]1Cl [sucralose, Sucralose]
- biofilm formation (P. aeruginosa PA14 [7]): significantly inhibit biofilm formation
- bacterial growth in the presence of sweetener (P. aeruginosa PA14 [4]; [10]): inhibit the growth
- biofilm formation (A. baumannii; 3% (w/v) sucralose, […] (w/v) ace-K, LB medium, 19 hours): significantly inhibit biofilm formation
- bacterial growth in the presence of sweetener (A. baumannii AB5075 [1]; [9]): inhibit the growth

Compound: polymyxin B [reference compound]
- log reduction in viable cells (A. baumannii AB5075 [8]): 3.13 log
- log reduction in viable cells (A. baumannii AB5075 [8]; burn wound biofilms, gauze loaded with 1.5 mL of 0.59 mg/mL polymyxin B singularly): 2.11 log
- susceptibility to antibiotic in the presence of ace-K (P. aeruginosa): increased susceptibility

Compound: C[C@@H](O)[C@H]1C(=O)N2C(C(=O)O)=C(S[C@@H]3CN[C@H](CNS(N)(=O)=O)C3)[C@H](C)[C@H]12 [doripenem]
- point to which growth was inhibited on the strip (A. baumannii AB5075 [6]; Control): 18.67 ± 4.61 mg/L
- point to which growth was inhibited on the strip (A. baumannii AB5075 [6]; SAC 1%): 13.33 ± 2.31 ns mg/L
- point to which growth was inhibited on the strip (A. baumannii AB5075 [6]; SAC […]): 0.46 ± 0.07 mg/L

Compound: piperacillin/tazobactam
- susceptibility to antibiotic in the presence of ace-K (P. aeruginosa): increased susceptibility
